What was measured:
[1] = tested on: ML-SV40 Prostat Cell Line; test: Dual label UC28 C/AnnexinV flow cytometry after SPB treatment; type: cell-based; conditions: for Total AnnexV / Total UC28C: 72 hours, ML-SV40, UC28-GAR-CY5/AnnexV-FITC
Experimental: (§1) Cells were grown to 70-80% confluence at 37° C. and 5% CO2 in T-75 tissue culture plastic flasks. SPB stock solution was added to final concentrations of 0.5, 5.0, 10.0, and 25.0 mM in appropriate fresh media to the cell cultures. Cells were incubated at 37° C. and 5% CO2 for 72 hours. Attached cells were then harvested using a solution of 0.05% trypsin and 0.53 mM EDTA (Invitrogen Corp.). Attached cells were then pooled with any the detached cells and washed with PBS pH 7.2. Cell numbers and percent viability were determined using Trypan blue dye exclusion and a hemacytometer. At the time of their use in an experiment the viability was usually about 85% for untreated cells and a range of about 15-70% for treated cells, with the lower viabilities found at higher SPB concentrations (Thompson C, 1995; Cory et al., 1998; van Engeland et al., 1996).
(§2) VO1 Apoptosis Detection Kit contains: (1) Fluorocein-isothiocyante (FITC) conjugated AnnexinV [AnnexinV01] 1 ml (2) Propidium Iodide [Annex-Pi] 2.0 ml (3) 4× Binding Buffer [Annex-B] 20.0 ml. Vendor is CalTag Laboratories, Inc., 1849 Bayshore Boulevard #200 Burlingame, Calif. 94010.
(§3) UC28(C) is 2.14 mg/ml rabbit polyclonal aliquot directed against the inventors' UC28 patented biomarker developed by UCor R&D gene discovery program. The Antibody was produced against a twenty amino acid (AA) synthetic peptide from the predicted AA sequence (AA 21-37) UCor, Inc. 840 Research Parkway Oklahoma City, Okla. 73104.
(§4) Goat Anti-Rabbit CY5 polyclonal Fluorchrome was used as the secondary conjugate for UC28 C rabbit polyclonal antibody and a background control for UC28 C polyclonal. Vendor is Jackson ImmunoResearch Laboratories, Inc. 872 West Baltimore Pike, P.O. Box 9 West Grove, Pa. 19390.
(§5) MsIgG-FITC mouse conjugated-FITC was used for background control for AnnexinV01. Vendor is Becicman Coulter, Inc. Diagnostic Division, 11800 SW 147th Ave. M/S 42-003, P.O. Box 169015, Miami, Floridia 33116-9015.
(§6) A Coulter Elite engineered with a triple laser system was used to analyze all samples. Coulter control beads were used to align lasers for the dual label testing of cell samples. Laser alignment was required for both the Argon (488 nm line) laser and HeNe (633 nm line) laser. These alignments were performed prior to all measurements with the Argon laser (488 nm line) using fluorophores for FITC, RPE, PI and the HeNe laser (633 nm line) for the Cy5 fluorophores being used for the experiments described below. The histographs, voltage settings, gates, color compensation, and pressures were established prior to all sample processing. […]
(§7) UC28 and Annexin V were co-labeled in the three cell lines to assess the induction of UC28 by SPB and its correlation to the induction of apoptosis. […] It may be noted that in previously published experiments, AnnexinV and PI were run in combination with several prostate cancer cell lines, one of which was LNCaP, but not with C4-2B or MLC-SV40. It was determined that they produced similar dose-response kinetics when exposed to 0.5-25 mM of SPB for 72 hours (Ng et al., 1989). That is, as the dose of SPB increased, so did the membrane perturbation events measured by these two methods.

[2] = tested on: LNCaP Prostate Cell Line; test: Dual label UC28/AnnexinV flow cytometry after SPB treatment; type: cell-based, human; conditions: for Total AnnexV / Total UC28C: 72 hours, UC28-GAR-CY5/AnnexV-FITC
Experimental: as §1, §2, §3, §4, §5, §6, §7

[3] = tested on: C4-2B Metastatic Prostate Cell Line; test: UROC28/Bcl-2 label flow cytometry after SPB treatment; type: cell-based, human; conditions: for Total Bcl-2 / Total UC2BC: section UROC28/Bcl-2
Experimental: as §1, §3, §4
Bc12 IgG1 kappa-FITC isomer 1 is a purified monoclonal mouse specific for Bc1-2 protein. Vendor is Dalco Corporation 6392 Via Real, Carpinteria, Calif. 93013 USA.
MsIgG1 kappa-FITC isomer 1 is a purified isotype specific control for Bc1-2 monoclonal antibody. Vendor is Dako Corporation 6392 Via Real, Carpinteria, Calif. 93013 USA.
Cytofix/Cytoperm™ ICit enables fixation and permeabilization of cells prior to staining with fluorochrome-conjugated antibodies. Vendor is BD-PharMingen, 10975 Torreyana Road, San Diego, Calif. 92121-1106.
A Coulter Elite engineered with a triple laser system was used to analyze all samples. Coulter control beads were used to align lasers for the dual label testing of cell samples. Laser alignment was required for both the Argon (488 nm line) laser and HeNe (633 nm line) laser. These alignments were performed prior to all measurements with the Argon laser (488 nm line) using fluorophores for FITC, RPE, PI and the HeNe laser (633 nm line) for the Cy5 fluorophores being used for the experiments described below. The histographs, voltage settings, gates, color compensation, and pressures were established prior to all sample processing.
(a) Tissue culture cells (MLC-SV40, LNCaP and C 4-2B) were aliquoted at concentration of 1×10^6 per teach 12×75 mm polystyrene tube. Label tubes as follows: • (i) No Antibody • (ii) Secondary GAR-CY5 polyclonal=(control for UC28 CIDGARCY5 polyclonal) vs MsIgG1-RPE (control for FAS-RPE monoclonal) • (iii) UC28 C-IDGARCY5 polyclonal vs FAS (CD45)—RPE monoclonal • (iv) SecondaryGAR-CY5 polyclonal=(control for UC28 C-IDGARCY5 polyclonal) vs MsIgG1-FITC (control for Bc12-FITC monoclonal) • (v) UC28 C-IDGARCY5 polyclonal vs Bc12-FITC monoclonal • (vi) UC28 C-IDGARCY5 Polyclonal=(single label for checking instrument after setting Coulter Elite flow cytometer for dual analysis using the three different fluorchromes.) • (vii) FAS ([…])—RPE monoclonal=(single label for checking instrument after setting Coulter Elite flow cytometer for dual analysis using the three different fluorchromes.) • (viii) Bc12-FITC monoclonal=(single label for checking instrument after setting Coulter Elite flow cytometer for dual analysis using the three different fluorchromes.)
(c) A volume of 100 μl of UC28 C rabbit polyclonal unconjugated antibody was added to the appropriately labeled tubes. All other tubes received 100 μl PBS (pH7.3) and all tubes were incubated at room temp in the dark for 1 hour. […]

[4] = SPB, MLC-SV40, summary of Table 5

SMILES: O=C([O-])CCCc1ccccc1.[Na+] [SPB, 4-Phenylbutyric Acid, Sodium Salt]
- Total AnnexV ([1]; 0.5 mM SPB): 11.4%
- Total UC28C ([1]; 0.5 mM SPB): 8.6%
- Total AnnexV ([1]; 5.0 mM SPB): 90.2%
- Total UC28C ([1]; 5.0 mM SPB): 6.8%
- Total AnnexV ([1]; 10 mM SPB): 95.7%
- Total UC28C ([1]; 10 mM SPB): 6.8%
- Total AnnexV ([1]; 25 mM SPB): 90.7%
- Total UC28C ([1]; 25 mM SPB): 9.3%
- UC28 up regulation [1, 4]: not
- induction of apoptosis [1, 4]: induced
- Total AnnexV ([2]; 0.5 mM SPB): 10.6%
- Total UC28C ([2]; 0.5 mM SPB): 28.0%
- Total AnnexV ([2]; 5.0 mM SPB): 44.7%
- Total UC28C ([2]; 5.0 mM SPB): 55.8%
- Total AnnexV ([2]; 10 mM SPB): 33.6%
- Total UC28C ([2]; 10 mM SPB): 66.4%
- Total AnnexV ([2]; 25 mM SPB): 89.2%
- Total UC28C ([2]; 25 mM SPB): 67.4%
- UC28 up regulation ([2]; SPB, summary of Table 5): up regulated
- induction of apoptosis ([2]; SPB, summary of Table 5): induced
- Total Bcl-2 ([3]; 5.0 mM SPB): 5.4%
- Total UC2BC ([3]; 5.0 mM SPB): 96.0%
- Total Bcl-2 ([3]; 10 mM SPB): 0.3%
- Total UC2BC ([3]; 10 mM SPB): 93.9%
- Bc1-2 protein expression ([3]; SPB, summary of Table 7): markedly depressed
- UC28 expression ([3]; SPB, summary of Table 7): significantly up regulated
